The values below come from PubChem BioAssay AID1259407 (Chemical Carcinogenesis Research Information System (CCRIS), 2018).

Activity calls are given as the source filed them. How the calls were made is not given here.

This data set has as its system CCRIS mutagenicity, Ames/micronucleus/aberration tests. The data set can be described thus: CCRIS mutagenicity studies.
Where [1] appears, read: Test System: AMES SALMONELLA TYPHIMURIUM, Strain/Indicator: TA100, Metabolic Activation: NONE, Method: PREINCUBATION

On to `Nc1ccc(Oc2ccc(Cl)cc2Cl)cc1`, for which the mutagenic call is “active; positive” (Test System: AMES SALMONELLA TYPHIMURIUM, Strain/Indicator: TA98, Metabolic Activation: S-9, Method: STANDARD PLATE); “active; positive” (Test System: AMES SALMONELLA TYPHIMURIUM, Strain/Indicator: TA100, Metabolic Activation: S-9, Method: STANDARD PLATE); “active; positive” (Test System: AMES SALMONELLA TYPHIMURIUM, Strain/Indicator: YG1021, Metabolic Activation: S-9, Method: STANDARD PLATE); “active; positive” (Test System: AMES SALMONELLA TYPHIMURIUM, Strain/Indicator: YG1024, Metabolic Activation: S-9, Method: STANDARD PLATE); “active; positive” (Test System: AMES SALMONELLA TYPHIMURIUM, Strain/Indicator: YG1026, Metabolic Activation: S-9, Method: STANDARD PLATE); “active; positive” (Test System: AMES SALMONELLA TYPHIMURIUM, Strain/Indicator: YG1029, Metabolic Activation: S-9, Method: STANDARD PLATE).
Regarding `O=C(/C=C/c1ccc([N+](=O)[O-])cc1)c1ccccc1`, the mutagenic call is, setting by setting: (Test System: AMES SALMONELLA TYPHIMURIUM, Strain/Indicator: TA98, Metabolic Activation: HAMSTER, LIVER, S-9, AROCLOR 1254, Method: STANDARD PLATE) “active; positive”; (Test System: AMES SALMONELLA TYPHIMURIUM, Strain/Indicator: TA98, Metabolic Activation: NONE, Method: STANDARD PLATE) “inactive; negative”; (Test System: AMES SALMONELLA TYPHIMURIUM, Strain/Indicator: TA98, Metabolic Activation: RAT, LIVER, S-9, AROCLOR 1254, Method: STANDARD PLATE) “active; positive”; (Test System: AMES SALMONELLA TYPHIMURIUM, Strain/Indicator: TA100(1,8-DNP6), Metabolic Activation: NONE, Method: PREINCUBATION) “inactive; negative”; (Test System: AMES SALMONELLA TYPHIMURIUM, Strain/Indicator: TA100(1,8-DNP6), Metabolic Activation: RAT, LIVER, S-9, AROCLOR 1254, Method: PREINCUBATION) “inactive; negative”; (Test System: AMES SALMONELLA TYPHIMURIUM, Strain/Indicator: TA100(NR), Metabolic Activation: NONE, Method: PREINCUBATION) “inactive; negative”. Also, the mutagenic call is “inactive; negative” (Test System: AMES SALMONELLA TYPHIMURIUM, Strain/Indicator: TA100(NR), Metabolic Activation: RAT, LIVER, S-9, AROCLOR 1254, Method: PREINCUBATION); “active; positive” (Test System: AMES SALMONELLA TYPHIMURIUM, Strain/Indicator: TA100, Metabolic Activation: HAMSTER, LIVER, S-9, AROCLOR 1254, Method: STANDARD PLATE); “inactive; negative” under setting [1]; “inactive; negative” (Test System: AMES SALMONELLA TYPHIMURIUM, Strain/Indicator: TA100, Metabolic Activation: NONE, Method: STANDARD PLATE); “active; positive” (Test System: AMES SALMONELLA TYPHIMURIUM, Strain/Indicator: TA100, Metabolic Activation: RAT, LIVER, S-9, AROCLOR 1254, Method: STANDARD PLATE); “active; positive” (Test System: AMES SALMONELLA TYPHIMURIUM, Strain/Indicator: TA100, Metabolic Activation: RAT, LIVER, S-9, AROCLOR, Method: PREINCUBATION). Moreover, the mutagenic call reads like this: (Test System: MOUSE LYMPHOMA, Strain/Indicator: L5178Y (TK+/TK-), Metabolic Activation: NONE, Method: SUSPENSION/PLATE) “inactive; negative. reevaluation of results: negative”; (Test System: MOUSE LYMPHOMA, Strain/Indicator: L5178Y (TK+/TK-), Metabolic Activation: RAT, LIVER, S-9, AROCLOR 1254, Method: SUSPENSION/PLATE) “inactive; negative. reevaluation of results: negative”.
On to `O=C1C[C@@H]2NCCCNCCCCN(CCCN1)C(=O)[C@@H]1c3cc2ccc3O[C@H]1c1ccc(O)cc1`, for which the mutagenic call was “inactive; negative” (Test System: AMES SALMONELLA TYPHIMURIUM, Strain/Indicator: TA97A, Metabolic Activation: NONE); “inactive; negative” (Test System: AMES SALMONELLA TYPHIMURIUM, Strain/Indicator: TA97A, Metabolic Activation: RAT, LIVER, S-9); “active; positive” (Test System: AMES SALMONELLA TYPHIMURIUM, Strain/Indicator: TA98, Metabolic Activation: NONE); “active; positive” (Test System: AMES SALMONELLA TYPHIMURIUM, Strain/Indicator: TA98, Metabolic Activation: RAT, LIVER, S-9); “active; positive” (Test System: AMES SALMONELLA TYPHIMURIUM, Strain/Indicator: TA100, Metabolic Activation: NONE); “active; positive” (Test System: AMES SALMONELLA TYPHIMURIUM, Strain/Indicator: TA100, Metabolic Activation: RAT, LIVER, S-9).
Consider `CC(=O)/C(C)=N/O`, for which the mutagenic call was “inactive; negative” (Test System: AMES SALMONELLA TYPHIMURIUM, Strain/Indicator: TA98, Metabolic Activation: HAMSTER, LIVER, S-9, AROCLOR 1254 (10%), Method: PREINCUBATION); “inactive; negative” (Test System: AMES SALMONELLA TYPHIMURIUM, Strain/Indicator: TA98, Metabolic Activation: NONE, Method: PREINCUBATION); “inactive; negative” (Test System: AMES SALMONELLA TYPHIMURIUM, Strain/Indicator: TA98, Metabolic Activation: RAT, LIVER, S-9, AROCLOR 1254 (10%), Method: PREINCUBATION); “inactive; negative” (Test System: AMES SALMONELLA TYPHIMURIUM, Strain/Indicator: TA100, Metabolic Activation: HAMSTER, LIVER, S-9, AROCLOR 1254 (10%), Method: PREINCUBATION); “inactive; negative” under setting [1]; “inactive; negative” (Test System: AMES SALMONELLA TYPHIMURIUM, Strain/Indicator: TA100, Metabolic Activation: RAT, LIVER, S-9, AROCLOR 1254 (10%), Method: PREINCUBATION). Further, the mutagenic call (Test System: AMES SALMONELLA TYPHIMURIUM, Strain/Indicator: TA1535, Metabolic Activation: HAMSTER, LIVER, S-9, AROCLOR 1254 (10%), Method: PREINCUBATION) was “inactive; negative”; the mutagenic call (Test System: AMES SALMONELLA TYPHIMURIUM, Strain/Indicator: TA1535, Metabolic Activation: NONE, Method: PREINCUBATION) was “inactive; negative”; the mutagenic call (Test System: AMES SALMONELLA TYPHIMURIUM, Strain/Indicator: TA1535, Metabolic Activation: RAT, LIVER, S-9, AROCLOR 1254 (10%), Method: PREINCUBATION) was “inactive; negative”; the mutagenic call (Test System: AMES SALMONELLA TYPHIMURIUM, Strain/Indicator: TA1537, Metabolic Activation: HAMSTER, LIVER, S-9, AROCLOR 1254 (10%), Method: PREINCUBATION) is “inactive; negative”; the mutagenic call (Test System: AMES SALMONELLA TYPHIMURIUM, Strain/Indicator: TA1537, Metabolic Activation: NONE, Method: PREINCUBATION) is “inactive; negative”; the mutagenic call (Test System: AMES SALMONELLA TYPHIMURIUM, Strain/Indicator: TA1537, Metabolic Activation: RAT, LIVER, S-9, AROCLOR 1254 (10%), Method: PREINCUBATION) was “inactive; negative”.
On to `CN(C)CCNC(=O)c1cccc2c1Nc1ccccc1O2`, for which, for the setting “Test System: AMES SALMONELLA TYPHIMURIUM, Strain/Indicator: TA1537, Metabolic Activation: NONE, Method: STANDARD PLATE”, the mutagenic call was “active; positive”.
As to `C=CCN1CCC=C2c3nc(NC(C)=O)sc3CCC21` (stereo not given), the mutagenic call (Test System: AMES SALMONELLA TYPHIMURIUM, Strain/Indicator: TA1538, Metabolic Activation: RAT, LIVER, S-9, AROCLOR 1254, Method: STANDARD PLATE) is “inactive; negative”.
